The values that follow come from patent US20210000814A1, “RIMEGEPANT FOR CGRP RELATED DISORDERS” (Biohaven Pharmaceutical Holding Company Ltd., priority 2018, published 2021).

Data set [1] has as its system subjects with Acute Migraines. The data set is described as follows: BHV3000-302 Phase 3 trial, acute treatment of migraine: efficacy. The data set is classed as in vivo, human. As to conditions: Study 302; P<0.0001. The protocol:
Clinical Trial—BHV3000-302: Phase 3: Double-Blind, Randomized, Placebo-Controlled, Safety and Efficacy Trial of BHV-3000 (Rimegepant) for the Acute Treatment of Migraine (ClinicalTrials.gov Identifier: NCT03237845) • A phase 3 clinical study was conducted with 1503 participants, as follows. […] Pain Freedom of rimegepant (75 mg tablet) compared with placebo in the acute treatment of migraine will be measured using the number of evaluable subjects that report no pain at 2 hours post-dose. [Time Frame: Two hours post dose] • Pain will be measured on a 4 point Likert scale (0=none, 1=mild, 2=moderate, 3=severe) • 2. Freedom from the most bothersome symptom (MBS) of rimegepant (75 mg tablet) compared with placebo will be measured using the number of evaluable subjects that report the absence of their MBS at 2 hours post-dose. […] The MBS (nausea, phonophobia or photophobia) will measured using a binary scale (0=absent, 1=present). […] [Time Frame: 2 hours-24 hours post-dose] • Sustained Pain Freedom as measured by a 4 point numeric rating scale (None, Mild, Moderate, Severe) • 2. […] [Time Frame: 2 hours post-dose] • Pain Relief as measured by a 4 point numeric rating scale (None, Mild, Moderate, Severe) • 5. […] [Time Frame: 2 hours-48 hours post-dose] • Sustained Pain Freedom as measured by a 4 point numeric rating scale (None, Mild, Moderate, Severe) • 8. […]

Data set [2] can be described thus: BHV3000-302 Phase 3 trial: safety and tolerability. As to conditions: Study 302. It counts as in vivo, human. The protocol: In a double-blind, randomized, placebo-controlled, multicenter study (Study 302, NCT03237845) adults […] of age with at least a 1-year history of ICHD 3-beta migraine were eligible to participate. Following a 3- to 28-day screening period, subjects were randomized to receive rimegepant 75 mg or matching placebo and instructed to treat a single migraine attack with 1 dose of the blinded study drug (rimegepant or placebo) when headache pain reached moderate or severe intensity. The coprimary endpoints were pain freedom at 2 hours postdose and freedom from the most bothersome symptom (MBS) at 2 hours postdose. Safety assessments included adverse events (AEs), ECGs, vital signs, physical measurements, and routine laboratory tests, including assessment of liver function. Unless stated otherwise, values presented are mean±SD.

Regarding `N[C@@H]1c2cccnc2[C@H](OC(=O)N2CCC(n3c(=O)[nH]c4ncccc43)CC2)CC[C@H]1c1cccc(F)c1F` [Rimegepant, [(55,65,9R)-5-amino-6-(2,3-difluorophenyl)-6,7,8,9-tetrahydro-5H-cyclohepta[b]pyridin-9-yl]4-(2-oxo-3H-imidazo[4,5-b]pyridin-1-yl)piperidine-1-carboxylate], the “patients achieving normal function at 2 hours (functional disability) versus placebo” value in data set [1] was “greater proportion”. Further, in data set [2], the “bilirubin elevations greater than 2 times ULN” value is listed as “no bilirubin elevations” and the “transaminase level greater than 3 times ULN” value is recorded as “No subject”. For the same molecule, the “safety and tolerability profile” value in data set [2] (75 mg oral tablet) is “favorable tolerability and safety”. Further, in data set [2] (back pain), the “Serious AEs (SAEs)” value is listed as 1 subject.
